# Assay results: patent publication US20170105952A1, “HISTONE ACETYL TRANSFERASE ACTIVATORS AND HISTONE DEACETYLASE INHIBITORS IN THE TREATMENT OF ALCOHOLISM” (THE BOARD OF TRUSTEES OF THE UNIVERSITY OF ILLINOIS, priority 2006, published 2017)
# “Also recorded” adds a separate entry of the source. Where two headings read alike, the source gives them in different places.
# How the values were obtained:
# [1] = system: HAT; settings: Mantelingu et al 2007; cited from earlier work
# [2] = target: p300 HAT (Homo sapiens, UniProt Q09472); settings: Balasubramanyam et al 2003; cited from earlier work
# Chain of p300 HAT (Q09472 whole entry, species assumed): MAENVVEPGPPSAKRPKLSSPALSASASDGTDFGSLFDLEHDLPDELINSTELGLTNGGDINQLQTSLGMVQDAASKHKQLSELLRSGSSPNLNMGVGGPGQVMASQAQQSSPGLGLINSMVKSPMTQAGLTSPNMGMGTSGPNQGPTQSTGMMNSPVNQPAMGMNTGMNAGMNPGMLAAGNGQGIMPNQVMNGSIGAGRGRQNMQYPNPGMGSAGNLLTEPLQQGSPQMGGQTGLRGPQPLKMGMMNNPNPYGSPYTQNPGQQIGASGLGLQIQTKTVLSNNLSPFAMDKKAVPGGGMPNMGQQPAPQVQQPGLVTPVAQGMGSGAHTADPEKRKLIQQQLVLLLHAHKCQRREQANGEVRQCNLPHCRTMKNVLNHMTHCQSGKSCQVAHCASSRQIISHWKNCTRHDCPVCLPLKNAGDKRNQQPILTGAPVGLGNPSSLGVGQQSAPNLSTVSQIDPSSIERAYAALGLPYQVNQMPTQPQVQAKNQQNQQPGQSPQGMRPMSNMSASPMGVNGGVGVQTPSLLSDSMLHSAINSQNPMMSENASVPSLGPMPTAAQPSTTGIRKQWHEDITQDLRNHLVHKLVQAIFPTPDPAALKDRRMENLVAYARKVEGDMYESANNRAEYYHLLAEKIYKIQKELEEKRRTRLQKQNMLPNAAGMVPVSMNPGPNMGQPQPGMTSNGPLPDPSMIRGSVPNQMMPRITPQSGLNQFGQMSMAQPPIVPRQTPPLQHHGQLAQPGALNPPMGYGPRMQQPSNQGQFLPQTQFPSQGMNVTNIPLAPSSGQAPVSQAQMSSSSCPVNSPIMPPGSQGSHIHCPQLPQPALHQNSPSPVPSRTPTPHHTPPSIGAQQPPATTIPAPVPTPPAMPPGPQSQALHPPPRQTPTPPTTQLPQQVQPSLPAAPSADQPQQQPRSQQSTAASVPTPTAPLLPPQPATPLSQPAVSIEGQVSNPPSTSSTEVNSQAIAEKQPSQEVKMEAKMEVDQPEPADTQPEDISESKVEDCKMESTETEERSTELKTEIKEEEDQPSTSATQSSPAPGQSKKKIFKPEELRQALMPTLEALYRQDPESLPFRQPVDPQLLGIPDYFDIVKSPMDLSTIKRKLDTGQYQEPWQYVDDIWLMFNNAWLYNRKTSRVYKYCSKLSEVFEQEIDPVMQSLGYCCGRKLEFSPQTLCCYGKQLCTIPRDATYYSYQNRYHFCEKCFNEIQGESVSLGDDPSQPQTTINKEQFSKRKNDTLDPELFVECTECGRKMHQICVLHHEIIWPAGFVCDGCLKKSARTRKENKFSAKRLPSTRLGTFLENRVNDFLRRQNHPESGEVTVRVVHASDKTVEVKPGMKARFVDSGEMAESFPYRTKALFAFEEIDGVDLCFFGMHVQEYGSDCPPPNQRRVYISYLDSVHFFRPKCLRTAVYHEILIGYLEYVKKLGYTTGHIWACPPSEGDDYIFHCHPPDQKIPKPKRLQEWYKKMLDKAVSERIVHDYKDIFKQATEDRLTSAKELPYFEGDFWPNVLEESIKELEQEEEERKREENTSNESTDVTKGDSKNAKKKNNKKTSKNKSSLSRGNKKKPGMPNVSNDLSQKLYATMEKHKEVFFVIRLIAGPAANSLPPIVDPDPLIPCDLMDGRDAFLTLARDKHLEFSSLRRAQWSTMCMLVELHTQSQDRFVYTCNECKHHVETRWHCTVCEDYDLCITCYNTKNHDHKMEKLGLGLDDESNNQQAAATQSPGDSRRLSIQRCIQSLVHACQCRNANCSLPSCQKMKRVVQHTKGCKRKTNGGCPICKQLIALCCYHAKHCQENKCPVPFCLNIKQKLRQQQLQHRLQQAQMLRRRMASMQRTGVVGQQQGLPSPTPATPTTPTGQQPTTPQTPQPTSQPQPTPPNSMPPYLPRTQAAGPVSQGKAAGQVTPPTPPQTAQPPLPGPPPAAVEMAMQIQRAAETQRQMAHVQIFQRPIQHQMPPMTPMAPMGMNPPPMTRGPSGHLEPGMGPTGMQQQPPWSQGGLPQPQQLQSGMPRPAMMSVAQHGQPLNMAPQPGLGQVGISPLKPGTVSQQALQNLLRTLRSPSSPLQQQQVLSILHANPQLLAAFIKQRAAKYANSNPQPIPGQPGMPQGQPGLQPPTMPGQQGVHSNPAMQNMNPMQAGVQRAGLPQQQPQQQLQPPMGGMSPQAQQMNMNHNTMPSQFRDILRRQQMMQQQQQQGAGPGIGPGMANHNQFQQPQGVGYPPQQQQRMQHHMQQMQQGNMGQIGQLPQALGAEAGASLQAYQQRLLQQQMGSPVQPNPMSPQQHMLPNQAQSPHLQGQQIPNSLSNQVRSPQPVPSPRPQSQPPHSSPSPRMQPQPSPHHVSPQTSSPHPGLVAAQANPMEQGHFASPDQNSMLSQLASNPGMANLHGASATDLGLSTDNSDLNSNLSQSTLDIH
# [3] = system: HDAC; settings: Balasubramanyam et al 2003; cited from earlier work
# [4] = system: ethanol-withdrawn SD rats; assay: Elevated-plus maze (EPM) test of anxiety-like behaviors in ethanol-withdrawn rats; type: in vivo
# Description: The effect of HDAC inhibition on anxiety-like behaviors of ethanol-withdrawn SD rats after chronic ethanol exposure was assayed using the class I and class II HDAC inhibitor trichostatin A (TSA). SD rats were fed with control or ethanol liquid diet, and ethanol-fed rats were withdrawn for 24 hours as described previously (Pandey et al, Alcohol Clin. Exp. Res. 27:396-409, 2003). Ethanol-withdrawn and control rats were treated with TSA or vehicle (1:5 dilution of DMSO with phosphate-buffered saline) two hours before measuring anxiety-like behaviors using the elevated-plus maze (EPM) test. The EPM is a cross-shaped elevated apparatus consisting of two open arms and two closed arms arranged directly opposite each other and connected to a central platform. To measure anxiety-like behaviors, a test rat was habituated for five-minutes in the test room and then placed on the central platform facing an open arm. The number of entries to each type of arm over a five-minute period was observed and recorded. EPM test results were reported as the mean±SEM of the percent of open-arm entries and the percent of time spent on the open arms. These collectively are referred to as open-arm activity. The general activity of each rat was measured by calculating the sum of open- and closed-arm entries. In the EPM test, ethanol withdrawal after chronic ethanol exposure produced increased anxiety-like behaviors as measured by a reduction in open-arm activities. […]
# The effect of Sir-2 inhibition on anxiety-like behaviors in ethanol-withdrawn SD rats after chronic ethanol exposure was assayed by central amygdaloid infusion of the Sir-2 inhibitor, sirtinol. […] Sirtinol (0.5 μl of 25 μM sirtinol) or vehicle (0.5 μl of 0.3% DMSO diluted with artificial CSF) was infused into the CeA of ethanol-withdrawn and control rats, and anxiety was measured after two hours. Anxiety-like behaviors in rats were then measured in the EPM test. […]
# [5] = system: ethanol-withdrawn SD rats; assay: Light/dark box exploration test of anxiety-like behaviors in ethanol-withdrawn rats; type: in vivo
# [6] = system: HDAC activity in the amygdala; assay: HDAC activity in the amygdala of ethanol-withdrawn rats; type: in vivo
# Description: The effect on HDAC activity in the amygdala of ethanol-withdrawn SD rats after chronic ethanol exposure was measured. SD rats were fed with control or ethanol liquid diet, and ethanol-fed rats were withdrawn for 24 hours. Ethanol-withdrawn and control rats were treated with TSA or vehicle two hours before measuring HDAC activity. Ethanol withdrawal after chronic ethanol exposure produced an increase in HDAC activity in the amygdala of rats.
# The effect on HDAC activity in the amygdala of ethanol-withdrawn SD rats after chronic ethanol exposure was measured. SD rats were fed with control or ethanol liquid diet, and ethanol-fed rats were withdrawn for 24 hours. […] Two hours after injections, brains were collected to measure HDAC activity. The nuclear and cytosolic fractions of amygdala were prepared and HDAC activities were measured using an HDAC ELISA kit. Ethanol withdrawal after chronic ethanol exposure produced an increase in nuclear, but not cytosolic, HDAC activity in the amygdala of rats.
# [7] = system: acetylated histone H3; assay: Acetylated histone H3 protein levels in amygdaloid structures of ethanol-withdrawn rats (gold-immunolabeling); type: in vivo; settings: for histone H3-K9 acetylation: SAHA 50 mg/kg intraperitoneally, FIG. 3
# Description: (§1) The effect of HDAC inhibition on acetylated histone H3, CBP, and Sir-2 (HDAC III) level in ethanol-withdrawn SD rats after chronic ethanol exposure was assayed using trichostatin A (TSA). SD rats were fed control or ethanol liquid diet, and ethanol-fed rats were withdrawn for 24 hours. Ethanol-withdrawn and control rats were treated with TSA or vehicle, and protein levels were measured in amygdaloid structures by gold-immunolabeling. In the CeA and MeA, but not in the BLA, ethanol withdrawal produced significant reductions in protein levels of acetylated histone H3 and CBP-HAT, and produced an increase in protein levels of Sir-2. […] Thus, histone acetylation is normalized by TSA treatment due to inhibition of HDAC activity.
# In the CeA and MeA, but not in the BLA, ethanol withdrawal produced significant reductions in protein levels of acetylated histone H3-K9.
# [8] = system: Limk1; assay: Limk1 protein levels in amygdaloid structures of ethanol-withdrawn rats (gold-immunolabeling); type: in vivo; settings: SAHA 50 mg/kg intraperitoneally, decrease seen in CeA and MeA, FIG. 5
# Description: The effect on protein levels of Limk1 in the amygdala of ethanol-withdrawn SD rats after chronic ethanol exposure was measured. SD rats were fed with control or ethanol liquid diet, and ethanol-fed rats were withdrawn for 24 hours. […] Brains were collected after perfusion for Limk1 protein level measurement. Protein levels were measured in amygdaloid structures by gold-immunolabeling. Ethanol withdrawal, but not ethanol treatment, produced significant decreases in protein levels of Limk1 in the CeA and MeA, but not in the BLA.
# [9] = system: CBP; assay: CBP protein levels in amygdaloid structures of ethanol-withdrawn rats (gold-immunolabeling); type: in vivo; settings: TSA
# Description: as §1
# [10] = system: Sir-2 (HDAC III); assay: Sir-2 protein levels in amygdaloid structures of ethanol-withdrawn rats (gold-immunolabeling); type: in vivo; settings: TSA
# Description: as §1
# [11] = system: NPY; assay: NPY mRNA and protein levels in amygdaloid structures of ethanol-withdrawn rats; type: in vivo; settings: TSA, reduction seen in CeA and MeA
# Description: The effect of HDAC inhibition on NPY mRNA and protein levels in ethanol-withdrawn SD rats after chronic ethanol exposure was also assayed using trichostatin A (TSA). SD rats were fed control or ethanol liquid diet, and ethanol-fed rats were withdrawn for 24 hours. Ethanol-withdrawn and control rats were treated with TSA or vehicle, and mRNA and protein levels were measured in amygdaloid structures. In the CeA and MeA, but not in the BLA, ethanol withdrawal produced significant reductions in both mRNA and protein levels of NPY. […] Thus, NPY expression is also normalized by TSA treatment during ethanol withdrawal after chronic ethanol exposure.
# [12] = system: alcohol-preferring (P) rats; assay: Two-bottle voluntary alcohol intake in alcohol-preferring rats; type: in vivo; settings: TSA 2 mg/kg intraperitoneal daily, last three days of 9% alcohol drinking
# Description: (§2) The effect of HDAC inhibition on the alcohol consumption of alcohol-preferring (P) and non-preferring (NP) rats was assayed. Selective breeding has produced the P and NP rat lines with high and low alcohol preference, respectively (Li T. K, Lumeng L, Doolittle D P, Behav. Genet. 23:163-170, 1993; McKinzie D L, Nowak K L, Murphy J M, Li T K, Lumeng L, McBride W J, Alcohol Clin. Exp. Res. 22:1584-1590, 1998). P and NP rats were habituated to drink water equally from two bottles. One bottle was then replaced with 7% ethanol for the first three days and 9% ethanol for the next seven days. During the last three days of 9% alcohol drinking, rats were treated with TSA daily (2 mg/kg intraperitoneal injection). […] As a result of the large reduction in voluntary alcohol consumption by the alcohol-preferring animal model when treated with an HDAC inhibitor, it is expected that HDAC inhibitors also prevent the development of alcohol dependence.
# [13] = system: non-preferring (NP) rats; assay: Two-bottle voluntary alcohol intake in non-preferring rats; type: in vivo; settings: TSA 2 mg/kg intraperitoneal daily, last three days of 9% alcohol drinking
# Description: as §2
# [14] = system: class I and class II HDACs; settings: Yoshida et al 1990; cited from earlier work
# [15] = system: HDACs in the amygdala; settings: ethanol 1 g/kg intraperitoneal injection, after one hour
# Description: (§3) The effect of acute ethanol exposure on HDAC activity, histone acetylation level, and CBP level was measured in Sprague-Dawley (SD) rats. Rats were injected with ethanol (1 g/kg intraperitoneal injection) or n-saline, and after one hour, anxiolytic responses were measured. […] The amygdala was then dissected out, and HDAC activity was measured.
# [16] = system: Sprague-Dawley (SD) rats; settings: ethanol 1 g/kg intraperitoneal injection vs n-saline, after one hour
# Description: as §3
# [17] = system: CBP; settings: acute ethanol vs n-saline
# Description: (§4) The protein levels of acetylated histone H3, acetylated histone H4, and CBP in the CeA structures of n-saline- or acute ethanol-treated rats were measured by immunohistochemistry.
# [18] = system: acetylated histone H3; settings: acute ethanol vs n-saline
# Description: as §4
# [19] = system: acetylated histone H4; settings: acute ethanol vs n-saline
# Description: as §4
# [20] = system: Sir-2; settings: Landry et al 2000; Blander et al 2004; cited from earlier work
smiles,measurement,setting,value
"CCOc1ccccc1C(=O)Nc1ccc(Cl)c(C(F)(F)F)c1 [CTB, N-(4-chloro-3-trifluoromethyl-phenyl)-2-ethoxy-benzamide]",HAT activation,[1],HAT activators
"CCCCCCCCCCCCCCCc1cccc(OCC)c1C(=O)Nc1ccc(Cl)c(C(F)(F)F)c1 [CTPB, N-(4-chloro-3-trifluoromethyl-phenyl)-2-ethoxy-6-pentadecyl-benzamide]",p300 HAT activity,[2],activate p300 HAT activity
same,HDAC activity,[3],without affecting HDAC activity
"O=C(CCCCCCC(=O)Nc1ccccc1)NO [SAHA, suberoylanilide hydroxamic acid]",anxiety-like behaviors (open-arm activity) in EPM test,"[4]; SAHA 50 mg/kg intraperitoneally, 24 hours ethanol withdrawal, FIG. 1B",prevented these anxiety-like behaviors
same,anxiety-like behaviors (time spent in the light box),"[5]; SAHA 50 mg/kg intraperitoneally, 24 hours ethanol withdrawal, FIG. 1A",significantly reduced these anxiety-like behaviors
same,withdrawal-induced increase in nuclear HDAC activity in the amygdala,"[6]; SAHA 50 mg/kg intraperitoneally, two hours after injection, nuclear fraction, HDAC ELISA kit, FIG. 2",attenuated this increase in nuclear HDAC activity
same,histone H3-K9 acetylation,[7]; BLA,had no effects on histone H3-K9 acetylation
same,histone H3-K9 acetylation,[7]; CeA and MeA,corrected the deficits in histone H3-K9 acetylation
same,Limk1 protein levels,[8],normalized Limk1 levels
"CC(/C=C/C(=O)NO)=C\[C@@H](C)C(=O)c1ccc(N(C)C)cc1 [TSA, trichostatin A]",anxiety-like behaviors (open-arm activity) in EPM test,"[4]; TSA two hours before test, 24 hours ethanol withdrawal after chronic ethanol",restored these anxiety-like behaviors to normal levels; also recorded: prevented the development of anxiety-like behaviors
same,anxiety-like behaviors (time spent in the light box),"[5]; TSA, 24 hours ethanol withdrawal after chronic ethanol",significantly reduced these anxiety-like behaviors
same,withdrawal-induced increase in HDAC activity in the amygdala,"[6]; TSA two hours before measurement, 24 hours ethanol withdrawal",completely prevented this increase in HDAC activity; also recorded: normalized the increase in HDAC activity
same,acetylated histone H3 levels,"[7]; TSA, reduction seen in CeA and MeA",rescued acetylated histone H3 levels; also recorded: normalized the reduction in acetylation of histone H3
same,CBP levels,[9],did not modulate CBP and Sir-2 levels
same,Sir-2 levels,[10],did not modulate CBP and Sir-2 levels
same,NPY mRNA and protein levels,[11],restored NPY levels to normal; also recorded: normalized the reduction in NPY expression
same,alcohol intake,[12],significantly attenuated the alcohol intake
same,alcohol intake,[13],not in low alcohol-drinking NP rats
same,inhibition of class I and class II HDACs,[14],potently inhibits class I and class II HDACs
CCO [ethanol],inhibition of HDAC activity in the amygdala compared to n-saline-treated rats,[15],36%
same,anxiolytic responses,[16],anxiolytic effects
same,protein level of CBP,[17]; BLA,not in basolateral amygdaloid (BLA) structures
same,protein level of CBP,[17]; CeA,increased protein levels
same,protein level of CBP,[17]; MeA,increased protein levels
same,protein level of acetylated histone H3,[18]; BLA,not in basolateral amygdaloid (BLA) structures
same,protein level of acetylated histone H3,[18]; CeA,increased protein levels
same,protein level of acetylated histone H3,[18]; MeA,increased protein levels
same,protein level of acetylated histone H4,[19]; CeA,increased protein levels
same,protein level of acetylated histone H4,[19]; MeA,increased protein levels
CC(NC(=O)c1ccccc1/N=C/c1c(O)ccc2ccccc12)c1ccccc1 (stereo not shown) [sirtinol],anxiety-like behaviors (open-arm activity) in EPM test,"[4]; 0.5 μl of 25 μM sirtinol infused into the CeA, two hours before test, 24 hours ethanol withdrawal",development of these anxiety-like behaviors was prevented
same,inhibition of Sir-2,[20],specific inhibitor of Sir-2
